Key:
[1] = Measured pKa of cationic lipids in LNP or micellar formulations by TNS fluorescence; assay type: physicochemical; conditions: for pKa: measured in the Formulation milieu, TNS fluorescence, 1 mM total lipids
Description: pKa of cationic lipids in LNP or micellar Formulations were measured by the procedure of Jayaraman, 2012, Angew. Chem. Int. Ed., 51:8529-33, hereby incorporated by reference. Lipid micelles or LNPs are diluted to 1 mM total lipids in universal buffer with a pH range between 3 and 12 in presence of 0.06 mg/mL 6-(p-toluidino)-2-naphthalenesulfonic acid sodium salt (TNS) reagent (Sigma Aldrich), a pH sensitive fluorescence probe. The anionic TNS molecule fluoresces when associated with the surface of positively charged membranes but is not fluorescent when free in solution, allowing measurement of pKa. The TNS signal is measured on a spectral plate reader. The TNS signal is plotted as function of the pH and analyzed using a non-linear (Boltzman) to determine the pKa.
Reagents used in the assay include • Hepes free acid, CAS: 7365-45-9 (VWR, 0511-1KG or equivalent) • MES, HPLC grade: (Sigma 105228-100G or equivalent) • Ammonium acetate, HPLC grade: (Sigma 90335-100 mL or equivalent) • Sodium chloride, HPLC grade (VWR EM-MX0475-1 or equivalent) • TNS (Sigma-Aldrich T9792-250 mg or equivalent) • Hydrochloric acid • DMSO • DPBS without calcium and magnesium (GE, SH30028.02 or equivalent) • H2O, HPLC grade (OmniSolv, WX0004-1 or equivalent)
To prepare a stock solution of Universal Buffer (UB) in a polystyrene sterile storage bottle, prepare 1 L using the following table.
Reagents are sterile filtered through a 0.2 μm filter. Preparation of UB solution includes adding 5 mL of 1 M HCl to a 350 mL stock solution.
To prepare a pH ladder, centrifuge tubes (50 mL) with 20 mL UB buffer are used. (pH ˜3) and differing amounts of 2 N NaOH. Stock solutions of TNS at 1 mg/mL in DMSO. 60 μL of TNS at 1 mg/mL is added to 940 μL water to reach a working solution concentration of 0.06 mg/mL. Five test samples, 1 mL of LNP sample in PBS at 1 mM total lipid, and 1 reference sample are analyzed per plate. Samples at different pH values are prepared in wells in which 25 μL of 0.06 mg/mL TNS is added. 15 μL of test samples is added per well. The microplate is incubated for 15 minutes at room temperature in the dark. TNS template can be used to format data from the plate reader. Perform non-linear (Boltzman) regression analysis of the samples in Origin Pro 8 or equivalent software.

mouse epo mRNA = assay: In vivo EPO mRNA stability after injection of lipid encapsulated mouse epo mRNA; parameters: species or system Balb/c mice; conditions: 0.03 and 0.1 mg/kg intravenous, 6 hours after injection, mice
Description: Levels of mRNA in plasma were measured and compared following injection of nanoparticles comprising different cationic lipids. Female Balb/c mice (6-8 week old) were used for evaluation of plasma erythropoietin (epo) levels in vivo following injection of lipid encapsulated mouse epo mRNA. All Formulations were administered intravenously via tail vein injection at a dose of 0.03 and 0.1 mg/kg at a dosing volume of 5 ml/kg. Terminal blood collection was performed via cardiac puncture under 2% isoflurane at 6 hours after Formulation injections. Blood was collected into 0.109 M citrate buffer tube and processed by centrifugation at 5000 rpm for 10 minutes. Serum was collected and epo mRNA levels were analyzed. Results are shown at FIG. 17.

epo protein = assay: In vivo epo protein expression after delivery of lipid encapsulated mouse epo mRNA (epo ELISA); parameters: species or system Balb/c mice; conditions: at 0.1 mg/kg, intravenous, 6 hours, mice
Description: Epo expression following delivery of mRNA using lipid nanoparticles comprising the lipids described herein was measured.
Female Balb/c mice (6-8 weeks old) were used for evaluation of epo protein expression in vivo following delivery of lipid encapsulated mouse epo mRNA. All formulations were administered intravenously via tail vein injection at a dose of 0.03 and 0.1 mg/kg at a dosing volume of 5 mL/kg. Terminal blood collection was performed via cardiac puncture under 2% isoflurane at 6 hours after Formulation injections. Blood was collected into 0.109 M citrate buffer tube and processed by centrifugation at 5000 rpm for 10 minutes. Serum was collected and epo protein levels were analyzed by epo ELISA assay (R&D systems). A standard curve was constructed using samples from PBS-injected mice and relative […] expression was determined by comparing treated groups to untreated PBS control.

Factor VII = assay: In vivo mouse Factor VII siRNA knockdown with lipid nanoparticles; parameters: species or system C57BL/6 mice; conditions: intravenous, 48 hours, mice; for Bioactivity: percentage in vivo Factor VII knockdown: dose 0.03 mg/kg
Text: The first pair of numbers denotes the number of carbons in the ester, including the carbonyl, for L1 and L2; the pair of numbers in the parenthesis denotes the number of carbons in each branch of the branched alkyl, R1 or if R2 is also branched, R1/R2 (an asterisk denotes a double bond); the number of carbons in R3 is given; and the last line denotes the substitution for R4 and R5. The ATX number is given for reference herein. Calculated Log D values (c-Log D) and calculated pKa (c-pKa) values are given, as well as measured pKa in parenthesis (measured in the Formulation milieu). The c-Log D and c-pKa values are generated by ACD Labs Structure Designer v12.0. Bioactivity is percentage in vivo Factor VII knockdown at a dose of 0.03 mg/kg, unless otherwise designated.
Using a liver-directed in vivo screen of the liposome libraries, a series of compounds were tested that facilitate high levels of siRNA mediated gene silencing in hepatocytes, the cells comprising the liver parenchyma. Factor VII, a blood-clotting factor, is a suitable target gene for assaying functional siRNA delivery to liver. Because this factor is produced specifically in hepatocytes, gene silencing indicates successful delivery to parenchyma, as opposed to delivery to the cells of the reticulo-endothelial system (e.g., Kupffer cells). Furthermore, Factor VII is a secreted protein that can be readily measured in serum, obviating the need to euthanize animals. Silencing at the mRNA level can be readily determined by measuring levels of protein. This is because the protein's short half-life (2-5 hour). Compositions with siRNA directed to […] were Formulated with the lipid, and comparator sample phosphate-buffered saline (PBS). Female C57BL/6 mice (6-8 week old) were used for FVII siRNA knockdown (KD) experiments.
All Formulations were administered intravenously via tail vein injection at a dose of 0.03 and 0.1 mg/kg at a dosing volume of […]. Terminal blood collection was performed via cardiac puncture under 2% isoflurane at 48 hours after Formulation injections. Blood was collected into 0.109 M citrate buffer tube and processed by centrifugation at 1200 G for 10 min. Plasma was collected and Factor VII protein levels were analyzed by chromogenic assay (Biophen FVII, Aniara Corporation). A standard curve was constructed using samples from PBS-injected mice and relative Factor VII expression was determined by comparing treated groups to untreated PBS control.

| Compound | Δ measured pKa vs ATX-0002 ([1]; change on shortening the ester, vs ATX-0002) | pKa [1] | epo mRNA levels in serum compared with ATX-0002 (FIG. 17) (mouse epo mRNA) | epo expression compared with ATX-002 (FIG. 19) (epo protein) | Factor VII knockdown activity compared with ATX-002 (FIG. 18) (Factor VII; both at 0.03 and 0.1 mg/kg) | Bioactivity: percentage in vivo Factor VII knockdown (Factor VII) [percentage] |
| --- | --- | --- | --- | --- | --- | --- |
| CCCCCC/C=C\COC(=O)CCCN(CCCC(=O)OC(CCCCCCC)CCCCCCCC)C(=O)SCCN(C)C (stereo not drawn) [ATX-0057] | no impact | 5.7 | substantial improvement over ATX-0002 | substantially higher amounts | substantially more effective than ATX-002 | 86 |
| CCCCCC/C=C\COC(=O)CCCCCN(CCCCCC(=O)OC(CCCCCC)CCCCCC)C(=O)SCCN(C)C [ATX-0084] | – | 6.11 | substantial improvement over ATX-0002 | – | – | 68 |
| CCCCCC/C=C\COC(=O)CCCN(CCCC(=O)OC(CCCCCC)CCCCCC)C(=O)SCCN(C)C [ATX-0086] | – | 6.05 | substantial improvement over ATX-0002 | – | – | 13 |

Source: patent US20210323914A1, “IONIZABLE CATIONIC LIPID FOR RNA DELIVERY” (Arcturus Therapeutics, Inc., priority 2017, published 2021)
